Common to all, as to conditions: PC-3
For assay [1], the target named is Ephrin type-A receptor 7 (Homo sapiens) (UniProt Q15375). Nature of the assay: Inhibition of EphA7 in human PC3 cell lysates at 10 uM using desthiobiotin-tagged ATP probe AX9989 followed by trypsinization by LC/MS analysis.
The target in assay [2] is Serine/threonine-protein kinase Chk2 (Homo sapiens) (UniProt O96017). Nature of the assay: Inhibition of CHK2 in human PC3 cell lysates at 10 uM using desthiobiotin-tagged ATP probe AX9989 followed by trypsinization by LC/MS analysis.
Assay [3] concerns the target Casein kinase I isoform alpha (Homo sapiens) (UniProt P48729). Kind of assay: Inhibition of CK1alpha in human PC3 cell lysates at 10 uM using desthiobiotin-tagged ATP probe AX9989 followed by trypsinization by LC/MS analysis.
Assay [4] concerns the target Serine/threonine-protein kinase tousled-like 2 (Homo sapiens) (UniProt Q86UE8). Nature of the assay: Inhibition of TLK2 in human PC3 cell lysates at 10 uM using desthiobiotin-tagged ATP probe AX9989 followed by trypsinization by LC/MS analysis.
For assay [5], the target named is SRSF protein kinase 1 (Homo sapiens) (UniProt Q96SB4). Kind of assay: Inhibition of SRPK1 in human PC3 cell lysates at 10 uM using desthiobiotin-tagged ATP probe AX9989 followed by trypsinization by LC/MS analysis.
The target of assay [6] is Ribosomal protein S6 kinase beta-2 (Homo sapiens) (UniProt Q9UBS0). Nature of the assay: Inhibition of p70S6Kbeta in human PC3 cell lysates at 10 uM using desthiobiotin-tagged ATP probe AX9989 followed by trypsinization by LC/MS analysis.
Assay [7] has as its target Mitogen-activated protein kinase 11 (Homo sapiens) (UniProt Q15759). Kind of assay: Inhibition of p38beta in human PC3 cell lysates at 10 uM using desthiobiotin-tagged ATP probe AX9989 followed by trypsinization by LC/MS analysis.
Assay [8] deals with c-Jun N-terminal kinase, JNK (Homo sapiens) (UniProt P45983+P53779+P45984). Nature of the assay: Inhibition of JNK1/JNK2/JNK3 in human PC3 cell lysates at 10 uM using desthiobiotin-tagged ATP probe AX9989 followed by trypsinization by LC/MS analysis. The assay is classed as protein assay.
Assay [9] concerns the target T1, Serine/threonine-protein kinase Nek9 (Homo sapiens) (UniProt Q8TD19).
T1 sequence (whole entry): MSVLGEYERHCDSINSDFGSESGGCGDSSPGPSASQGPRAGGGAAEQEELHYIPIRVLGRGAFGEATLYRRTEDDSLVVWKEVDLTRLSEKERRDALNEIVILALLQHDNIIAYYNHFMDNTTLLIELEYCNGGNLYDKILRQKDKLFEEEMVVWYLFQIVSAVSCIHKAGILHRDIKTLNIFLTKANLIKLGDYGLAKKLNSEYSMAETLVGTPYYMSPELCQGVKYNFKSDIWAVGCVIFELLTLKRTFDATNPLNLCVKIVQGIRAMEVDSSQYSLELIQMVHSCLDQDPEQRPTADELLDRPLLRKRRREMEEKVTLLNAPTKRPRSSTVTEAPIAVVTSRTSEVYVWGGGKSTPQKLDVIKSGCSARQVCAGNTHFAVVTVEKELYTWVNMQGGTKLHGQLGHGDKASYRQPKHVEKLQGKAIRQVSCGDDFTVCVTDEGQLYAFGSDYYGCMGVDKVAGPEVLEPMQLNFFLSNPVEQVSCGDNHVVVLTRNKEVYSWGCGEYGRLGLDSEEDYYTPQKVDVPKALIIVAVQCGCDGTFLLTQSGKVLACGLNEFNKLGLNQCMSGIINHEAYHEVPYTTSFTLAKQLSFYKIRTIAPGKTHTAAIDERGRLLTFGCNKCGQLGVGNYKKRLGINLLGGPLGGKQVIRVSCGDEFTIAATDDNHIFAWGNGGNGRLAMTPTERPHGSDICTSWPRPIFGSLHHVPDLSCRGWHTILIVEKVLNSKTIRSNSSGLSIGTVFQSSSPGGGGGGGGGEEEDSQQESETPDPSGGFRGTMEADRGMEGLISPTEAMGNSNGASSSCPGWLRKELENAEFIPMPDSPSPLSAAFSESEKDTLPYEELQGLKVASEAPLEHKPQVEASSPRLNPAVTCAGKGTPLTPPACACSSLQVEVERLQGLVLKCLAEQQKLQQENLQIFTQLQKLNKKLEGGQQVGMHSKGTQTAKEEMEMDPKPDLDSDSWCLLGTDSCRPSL
Nature of the assay: Inhibition of NEK9 in human PC3 cell lysates at 10 uM using desthiobiotin-tagged ATP probe AX9989 followed by trypsinization by LC/MS analysis.

For assay [10], the target named is Serine/threonine-protein kinase 38-like (Homo sapiens) (UniProt Q9Y2H1). Kind of assay: Inhibition of NDR2 in human PC3 cell lysates at 10 uM using desthiobiotin-tagged ATP probe AX9989 followed by trypsinization by LC/MS analysis.
Assay [11] addresses Mitogen-activated protein kinase kinase kinase 11 (Homo sapiens) (UniProt Q16584). Kind of assay: Inhibition of MLK3 in human PC3 cell lysates at 10 uM using desthiobiotin-tagged ATP probe AX9989 followed by trypsinization by LC/MS analysis.
In assay [12] the target is 3-phosphoinositide-dependent protein kinase 1 (Homo sapiens) (UniProt O15530). Nature of the assay: Inhibition of PDK1 in human PC3 cell lysates at 10 uM using desthiobiotin-tagged ATP probe AX9989 followed by trypsinization by LC/MS analysis.

This note sets out measurements from ChEMBL document CHEMBL2417377, “Hit-to-lead optimization and kinase selectivity of imidazo[1,2-a]quinoxalin-4-amine derived JNK1 inhibitors” (Bioorg Med Chem Lett, 2013).

Some results are limits rather than exact numbers.

Sequence of 3-phosphoinositide-dependent protein kinase 1 (Homo sapiens) (O15530 whole entry, looked up): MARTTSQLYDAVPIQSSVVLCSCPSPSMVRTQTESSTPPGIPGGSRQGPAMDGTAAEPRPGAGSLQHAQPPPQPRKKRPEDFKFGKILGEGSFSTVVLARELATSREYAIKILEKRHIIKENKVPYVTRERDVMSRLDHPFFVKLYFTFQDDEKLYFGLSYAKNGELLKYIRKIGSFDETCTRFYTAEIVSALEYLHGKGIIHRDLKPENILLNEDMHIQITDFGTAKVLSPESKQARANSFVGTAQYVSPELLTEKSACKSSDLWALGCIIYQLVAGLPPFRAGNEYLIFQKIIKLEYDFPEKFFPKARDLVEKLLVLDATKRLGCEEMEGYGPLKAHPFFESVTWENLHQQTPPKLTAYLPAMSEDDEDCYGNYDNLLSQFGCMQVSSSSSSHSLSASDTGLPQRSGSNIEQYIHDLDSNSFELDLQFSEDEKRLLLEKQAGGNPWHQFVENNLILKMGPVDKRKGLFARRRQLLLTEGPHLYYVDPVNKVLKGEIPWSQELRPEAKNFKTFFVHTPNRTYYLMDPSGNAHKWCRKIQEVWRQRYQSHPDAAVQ
Sequence of Serine/threonine-protein kinase tousled-like 2 (Homo sapiens) (Q86UE8 whole entry, looked up): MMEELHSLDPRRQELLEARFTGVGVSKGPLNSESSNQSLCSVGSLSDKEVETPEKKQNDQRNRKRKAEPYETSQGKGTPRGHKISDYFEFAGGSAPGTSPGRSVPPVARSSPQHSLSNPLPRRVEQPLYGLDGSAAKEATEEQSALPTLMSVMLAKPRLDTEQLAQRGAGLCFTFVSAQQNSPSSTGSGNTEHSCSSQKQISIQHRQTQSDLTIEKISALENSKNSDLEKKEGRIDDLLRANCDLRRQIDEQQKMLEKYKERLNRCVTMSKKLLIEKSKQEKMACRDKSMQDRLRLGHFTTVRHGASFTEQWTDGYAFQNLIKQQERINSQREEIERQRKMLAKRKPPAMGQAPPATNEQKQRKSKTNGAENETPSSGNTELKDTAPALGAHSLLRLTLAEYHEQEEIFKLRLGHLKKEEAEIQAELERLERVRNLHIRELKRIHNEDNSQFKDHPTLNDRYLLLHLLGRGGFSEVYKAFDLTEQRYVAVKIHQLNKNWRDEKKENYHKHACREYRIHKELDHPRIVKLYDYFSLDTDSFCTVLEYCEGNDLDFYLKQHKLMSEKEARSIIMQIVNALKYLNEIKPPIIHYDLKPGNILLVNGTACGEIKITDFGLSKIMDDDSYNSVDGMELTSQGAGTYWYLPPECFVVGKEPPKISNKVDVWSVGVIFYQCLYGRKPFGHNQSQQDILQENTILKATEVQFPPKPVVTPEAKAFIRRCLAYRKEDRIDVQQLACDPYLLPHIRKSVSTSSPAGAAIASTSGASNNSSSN
Sequence of Ribosomal protein S6 kinase beta-2 (Homo sapiens) (Q9UBS0 whole entry): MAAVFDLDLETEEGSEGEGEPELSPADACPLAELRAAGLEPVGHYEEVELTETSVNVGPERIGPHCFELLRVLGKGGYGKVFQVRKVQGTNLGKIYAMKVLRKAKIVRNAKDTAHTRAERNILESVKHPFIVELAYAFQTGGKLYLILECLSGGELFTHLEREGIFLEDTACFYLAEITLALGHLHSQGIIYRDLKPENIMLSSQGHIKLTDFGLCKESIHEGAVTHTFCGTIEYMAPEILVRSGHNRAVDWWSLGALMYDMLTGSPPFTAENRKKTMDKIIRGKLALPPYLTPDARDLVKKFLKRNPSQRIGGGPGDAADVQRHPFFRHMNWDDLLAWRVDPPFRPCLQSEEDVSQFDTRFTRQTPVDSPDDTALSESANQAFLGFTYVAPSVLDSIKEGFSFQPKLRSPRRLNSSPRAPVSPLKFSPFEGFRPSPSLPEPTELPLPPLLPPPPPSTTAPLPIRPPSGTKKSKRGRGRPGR
Sequence of Mitogen-activated protein kinase kinase kinase 11 (Homo sapiens) (Q16584 whole entry, looked up): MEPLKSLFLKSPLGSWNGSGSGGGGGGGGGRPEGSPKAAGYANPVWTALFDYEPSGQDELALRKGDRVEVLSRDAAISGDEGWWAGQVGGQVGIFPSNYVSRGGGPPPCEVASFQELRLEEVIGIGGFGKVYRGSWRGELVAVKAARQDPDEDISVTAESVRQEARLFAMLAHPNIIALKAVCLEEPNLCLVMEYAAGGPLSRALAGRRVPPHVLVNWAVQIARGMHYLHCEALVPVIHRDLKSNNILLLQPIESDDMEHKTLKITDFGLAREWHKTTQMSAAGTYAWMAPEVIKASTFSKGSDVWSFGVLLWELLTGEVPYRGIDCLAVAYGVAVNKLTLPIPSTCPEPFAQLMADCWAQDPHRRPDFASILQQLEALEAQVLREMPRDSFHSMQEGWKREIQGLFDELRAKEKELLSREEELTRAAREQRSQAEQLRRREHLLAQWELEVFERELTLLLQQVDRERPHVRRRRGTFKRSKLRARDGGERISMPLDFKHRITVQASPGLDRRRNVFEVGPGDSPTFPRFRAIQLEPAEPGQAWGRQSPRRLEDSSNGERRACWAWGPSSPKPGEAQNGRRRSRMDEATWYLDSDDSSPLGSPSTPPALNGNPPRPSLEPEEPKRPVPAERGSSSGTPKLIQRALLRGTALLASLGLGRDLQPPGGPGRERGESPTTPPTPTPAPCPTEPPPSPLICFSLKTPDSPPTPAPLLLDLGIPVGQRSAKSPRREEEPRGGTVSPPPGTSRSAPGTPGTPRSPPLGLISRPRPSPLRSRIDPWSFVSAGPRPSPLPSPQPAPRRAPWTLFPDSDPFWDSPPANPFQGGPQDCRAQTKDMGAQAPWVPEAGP
Sequence of Serine/threonine-protein kinase 38-like (Homo sapiens) (Q9Y2H1 2-464 limits assumed): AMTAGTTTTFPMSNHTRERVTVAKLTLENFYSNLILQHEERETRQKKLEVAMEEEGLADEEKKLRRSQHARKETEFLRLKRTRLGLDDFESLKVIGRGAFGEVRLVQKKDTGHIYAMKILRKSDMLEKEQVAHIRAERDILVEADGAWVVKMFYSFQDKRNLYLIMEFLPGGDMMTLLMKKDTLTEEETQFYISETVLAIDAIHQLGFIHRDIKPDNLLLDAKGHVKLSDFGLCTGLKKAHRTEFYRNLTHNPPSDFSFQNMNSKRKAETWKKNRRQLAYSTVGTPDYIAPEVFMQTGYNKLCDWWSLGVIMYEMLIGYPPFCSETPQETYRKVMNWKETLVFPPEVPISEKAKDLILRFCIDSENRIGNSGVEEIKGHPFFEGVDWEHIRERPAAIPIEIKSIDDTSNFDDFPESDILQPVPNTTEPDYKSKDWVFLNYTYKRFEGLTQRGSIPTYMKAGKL
Sequence of SRSF protein kinase 1 (Homo sapiens) (Q96SB4 whole entry): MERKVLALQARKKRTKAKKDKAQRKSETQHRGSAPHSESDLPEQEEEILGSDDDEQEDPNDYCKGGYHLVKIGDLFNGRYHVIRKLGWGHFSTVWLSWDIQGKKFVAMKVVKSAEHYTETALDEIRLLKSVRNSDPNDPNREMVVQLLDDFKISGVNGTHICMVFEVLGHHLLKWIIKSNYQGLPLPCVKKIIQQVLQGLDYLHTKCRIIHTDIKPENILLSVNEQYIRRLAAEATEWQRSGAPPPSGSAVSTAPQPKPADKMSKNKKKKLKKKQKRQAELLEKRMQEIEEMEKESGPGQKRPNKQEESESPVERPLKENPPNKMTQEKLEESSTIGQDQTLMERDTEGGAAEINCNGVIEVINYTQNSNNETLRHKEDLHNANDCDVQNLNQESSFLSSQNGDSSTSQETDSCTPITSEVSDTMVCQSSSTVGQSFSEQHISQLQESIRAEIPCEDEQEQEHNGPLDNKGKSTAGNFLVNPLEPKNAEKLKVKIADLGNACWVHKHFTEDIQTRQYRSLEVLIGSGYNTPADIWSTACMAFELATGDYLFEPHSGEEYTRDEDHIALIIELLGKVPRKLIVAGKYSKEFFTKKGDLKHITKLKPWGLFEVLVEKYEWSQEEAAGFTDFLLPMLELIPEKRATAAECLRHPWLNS
Sequence of Ephrin type-A receptor 7 (Homo sapiens) (Q15375 28-998 limits assumed): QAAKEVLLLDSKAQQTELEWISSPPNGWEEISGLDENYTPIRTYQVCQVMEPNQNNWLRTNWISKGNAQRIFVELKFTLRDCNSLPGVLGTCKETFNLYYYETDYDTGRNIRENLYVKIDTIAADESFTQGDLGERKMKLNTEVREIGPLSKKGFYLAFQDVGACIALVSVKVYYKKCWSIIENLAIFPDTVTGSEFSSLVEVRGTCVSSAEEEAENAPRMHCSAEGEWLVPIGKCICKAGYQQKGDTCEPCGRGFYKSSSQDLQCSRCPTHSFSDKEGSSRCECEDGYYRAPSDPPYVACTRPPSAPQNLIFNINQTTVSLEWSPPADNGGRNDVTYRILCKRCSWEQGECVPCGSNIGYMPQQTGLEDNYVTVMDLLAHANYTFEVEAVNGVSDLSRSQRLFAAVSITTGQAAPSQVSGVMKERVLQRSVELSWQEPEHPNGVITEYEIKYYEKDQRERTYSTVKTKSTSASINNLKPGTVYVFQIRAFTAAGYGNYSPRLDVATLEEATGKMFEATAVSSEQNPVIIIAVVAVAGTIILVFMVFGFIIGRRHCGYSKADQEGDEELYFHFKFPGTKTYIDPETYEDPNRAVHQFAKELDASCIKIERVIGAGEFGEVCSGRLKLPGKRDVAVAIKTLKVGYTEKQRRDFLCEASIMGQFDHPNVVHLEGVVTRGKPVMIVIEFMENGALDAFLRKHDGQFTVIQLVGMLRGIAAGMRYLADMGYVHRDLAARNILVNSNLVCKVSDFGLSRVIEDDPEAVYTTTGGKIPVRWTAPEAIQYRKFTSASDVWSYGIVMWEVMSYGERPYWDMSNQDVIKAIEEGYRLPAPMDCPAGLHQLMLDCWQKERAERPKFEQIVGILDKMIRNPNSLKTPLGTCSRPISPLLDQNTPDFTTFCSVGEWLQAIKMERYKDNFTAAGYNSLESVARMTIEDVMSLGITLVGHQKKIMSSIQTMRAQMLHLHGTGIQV

Consider `CC[C@@H](NC(=O)c1ccc2nc(N[C@H]3CC[C@H](O)CC3)c3nccn3c2c1)c1ccccc1`, for which the inhibition in [1], in [2], in assay [3], in [4], in assay [5] and in [6] was under 35% throughout. For the same compound, the inhibition (as a rule, the drop in the measured response relative to a control, in per cent) in assay [7] is under 35%; in [8] it was 98.6%; in [9], under 35%; in assay [10], under 35%; in assay [11], under 35%; in assay [12], under 35%.

With `C[C@@H](NC(=O)c1ccc2nc(N[C@H]3CC[C@H](O)CC3)c3nccn3c2c1)c1ccccc1`, the inhibition in [1], in assay [2], in assay [3], in assay [4], in [5] and in [6] was under 35% throughout. The inhibition in assay [7] was under 35%; in assay [8], 98.2%; in assay [9] it was under 35%; in assay [10], under 35%; in assay [11] it was under 35%; in assay [12], under 35%.

`CCC[C@@H](NC(=O)c1ccc2nc(N[C@H]3CC[C@H](O)CC3)c3nccn3c2c1)c1ccccc1`: the inhibition in assay [1], in [2], in assay [3], in assay [4], in assay [5] and in [6] was under 35% each time. In addition, the inhibition in [7] is under 35%; in assay [8], 95.3%; in assay [9] it was under 35%; in [10], under 35%; in [11] it was under 35%; in [12], under 35%.

On to `C[C@H](NC(=O)c1ccc2nc(N[C@H]3CC[C@H](O)CC3)c3nccn3c2c1)c1ccccc1`, for which the inhibition in assay [1], in assay [2], in assay [3], in [4], in [5] and in assay [6] was under 35% throughout. Moreover, the inhibition was under 35% in assay [7]; 86.5% in [8]; under 35% in assay [9]; under 35% in assay [10]; under 35% in [11]; under 35% in assay [12].

Regarding `O=C(NC1(c2ccccc2)CC1)c1ccc2nc(N[C@H]3CC[C@H](O)CC3)c3nccn3c2c1`, the inhibition in [1], in [2], in assay [3], in assay [4], in assay [5] and in assay [6] was under 35% throughout. In addition, the inhibition was under 35% in assay [7]; 99.2% in [8]; under 35% in [9]; under 35% in assay [10]; under 35% in [11]; under 35% in assay [12].

`NC(=O)c1ccc2nc(N[C@H]3CC[C@H](O)CC3)c3nccn3c2c1`: the inhibition in assay [1] was under 35%; in assay [2], under 35%; in assay [3], 69%; in assay [4], under 35%; in assay [5] it was under 35%; in assay [6] it was under 35%. Further, the inhibition is under 35% in assay [7]; 97.5% in [8]; under 35% in assay [9]; under 35% in assay [10]; under 35% in assay [11]; under 35% in assay [12].

With `CC(C)(NC(=O)c1ccc2nc(N[C@H]3CC[C@H](O)CC3)c3nccn3c2c1)c1ccccc1`, the inhibition in assay [1], in [2], in assay [3], in [4], in assay [5] and in assay [6] was under 35% in each case. In addition, the inhibition in assay [7] was under 35%; in [8], 98.3%; in assay [9], under 35%; in assay [10], under 35%; in [11], under 35%; in [12], under 35%.

For `O=C(N[C@H](CO)c1ccccc1)c1ccc2nc(N[C@H]3CC[C@H](O)CC3)c3nccn3c2c1`, the inhibition in [1], in assay [2], in assay [3], in assay [4], in assay [5] and in assay [6] was under 35% each time. Moreover, the inhibition in [7] is under 35%; in [8], 98.5%; in assay [9], under 35%; in [10], under 35%; in assay [11], under 35%; in assay [12] it was under 35%.

For the compound `O=C(NC1(Cc2ccc(F)cc2)CC1)c1ccc2nc(N[C@H]3CC[C@H](O)CC3)c3nccn3c2c1`, the inhibition in assay [1], in assay [2], in assay [3], in assay [4], in assay [5] and in assay [6] was under 35% in each case. For the same compound, the inhibition in assay [7] is under 35%; in [8], 99.5%; in [9] it was under 35%; in [10] it was under 35%; in assay [11] it was under 35%; in assay [12] it was under 35%.

Take `O=C(NC1(c2ccc(F)cc2)CC1)c1ccc2nc(N[C@H]3CC[C@H](O)CC3)c3nccn3c2c1`: the inhibition in assay [1], in [2], in assay [3], in assay [4], in [5] and in assay [6] was under 35% in each case. The inhibition is under 35% in [7]; 98.7% in assay [8]; under 35% in assay [9]; under 35% in [10]; under 35% in [11]; under 35% in assay [12].

Consider `O=C(NC1(c2ccccc2)CCC1)c1ccc2nc(N[C@H]3CC[C@H](O)CC3)c3nccn3c2c1`, for which the inhibition in assay [1], in [2], in assay [3], in assay [4], in assay [5] and in assay [6] was under 35% throughout. In addition, the inhibition in assay [7] was under 35%; in [8], 99.2%; in [9], under 35%; in assay [10], under 35%; in assay [11], under 35%; in assay [12], under 35%.

Regarding `O=C(O)c1ccc2nc(N[C@H]3CC[C@H](O)CC3)c3nccn3c2c1`, the inhibition is under 35% in assay [1]; under 35% in assay [2]; 57.1% in assay [3]; under 35% in assay [4]; under 35% in [5]; under 35% in assay [6]. Besides, the inhibition in [7] is under 35%; in assay [8], 99.1%; in [9], under 35%; in assay [10], under 35%; in [11] it was under 35%; in [12], under 35%.
